Tested on: mRNA expression in cardiovascular tissues
Assay: Affymetrix GeneChip mRNA expression profiling of monkey tissues (iliac vein, pulmonary vein, aorta, carotid artery, heart) after two-week oral-gavage treatment
[1] = iliac vein, Vioxx animal A60055

Protocol: Administration of compounds. A two-week oral-gavage treatment with the Cox-2 specific inhibitor COX189 (Lumiracoxib®, Novartis) in comparison with rofecoxib (Vioxx®, Merck), and celecoxib (Celebrex®, Pharmacia/Pfizer), and with the nonselective NSAID, diclofenac (Voltaren®, Novartis) was performed. […] The test items were administered daily at doses of 100 mg/kg/day, except Vioxx® which was administered at 50 mg/kg/day.
Gene expression profiles. After a period of time (e.g., four weeks) of compound/drug administration, the treated animals are necropsied. 120 tissues are dissected and rapidly snap-frozen for genomics analysis. Organ samples are isolated for histopathological examinations and for gene expression localizations, such as by in situ hybridization.
Gene expression profiles have been generated using the Affymetrix microarray technology. (i) RNA extraction and purification: Briefly, total RNA was obtained by acid guanidinium thiocyanate-phenol-chloroform extraction (Trizol®, Invitrogen Life Technologies, San Diego, Calif.) from each frozen tissue section and the total RNA was then purified on an affinity resin (Rneasy®, Qiagen) according to the manufacturer's instructions. Total RNA was quantified by the absorbance at λ=260 nm (A260 nm) and the purity was estimated by the ratio A260 nm/A280 nm. Integrity of the RNA molecules was confirmed by non-denaturing agarose gel electrophoresis. RNA was stored at −80° C. until analysis. […] (ii) GeneChip® experiment: All GeneChip® experiments were conducted in the Genomics Factory EU following recommendations by the manufacturer of the GeneChip® system (Affymetrix, Expression Analysis Technical Manual (Affymetrix, Santa Clara, Calif., 2005). Human U133A genome arrays were used for transcript expression analysis. Double stranded cDNA was synthesized with a starting amount of approximately 5 μg full-length total RNA using the Superscript Choice System (Invitrogen Life Technologies) in the presence of a T7-(dT) 24 DNA oligonucleotide primer. Following synthesis, the cDNA was purified by phenol/chloroform/isoamyl alcohol extraction and ethanol precipitation. The purified cDNA was then transcribed in vitro using the BioArray® High Yield RNA Transcript Labeling Kit (ENZO) in the presence of biotinylated ribonucleotides form biotin labelled cRNA. The labelled cRNA was then purified on an affinity resin (Rneasy, Qiagen), quantified and fragmented. An amount of approximately 10 μg labelled cRNA was hybridized for approximately 16 hours at 45° C. to an expression probe array. The array was then washed and stained twice with streptavidin-phycoerythrin (Molecular Probes) using the GeneChip Fluidics Workstation 400 (Affymetrix). The array was then scanned twice using a confocal laser scanner (GeneArray Scanner®, Agilent) resulting in one scanned image. This resulting “.dat-file” was processed using the MASS program (Affymetrix) into a “.cel-file”. The “.cel file” was then transferred to tan Affymetrix GeneChip Laboratory Information Management System (LIMS) database, which is connected to a UNIX Sun Solaris server through a network filing system that allows for the average intensities for all probes cells (CEL file) to be downloaded into an Oracle database (NPGN). Raw data was converted to expression levels using a “target intensity” of 100. […] The data were checked for quality and loaded in the GeneSpring® software versions 5.0 (Silicon Genetics, Calif., US) for statistical analysis.
Quality control analysis of transcriptome data: The following quality measures were analysed for each sample: Scaling factor, background, percent present calls, AFFX-GAPDH 3′: AFFX-GAPDH 5′-ratio, AFFX-GAPDH 3′ variance, AFFX-Beta-actin 3′: AFFX-Beta-actin 5′-ratio.

CS(=O)(=O)c1ccc(C2=C(c3ccccc3)C(=O)OC2)cc1 [Vioxx®, rofecoxib]
expression of MHC class I classical and non-classical molecules, MHC class II molecules and their receptors (16 tissues, ANOVA p<0.05, 50 mg/kg/day, two weeks): significant increases
ACE (209749_s_at) mRNA expression, fold change vs control [1]: 1.3 fold
B2M (216231_s_at) mRNA expression, fold change vs control [1]: 1.4 fold
BCL6 (215990_s_at) mRNA expression, fold change vs control [1]: 1.3 fold
BTN2A2 (205298_s_at) mRNA expression, fold change vs control [1]: 1.4 fold
CCR1 (205098_at) mRNA expression, fold change vs control [1]: 1.4 fold
CD2 (205831_at) mRNA expression, fold change vs control [1]: 1.4 fold
CD48 (204118_at) mRNA expression, fold change vs control [1]: 1.5 fold
CD53 (203416_at) mRNA expression, fold change vs control [1]: 1.5 fold
CDC2 (210559_s_at) mRNA expression, fold change vs control [1]: 1.5 fold
CYBB (203922_s_at) mRNA expression, fold change vs control [1]: 1.4 fold
EMP3 (203729_at) mRNA expression, fold change vs control [1]: 1.4 fold
FCER1G (204232_at) mRNA expression, fold change vs control [1]: 1.4 fold
FCGR2A (203561_at) mRNA expression, fold change vs control [1]: 1.5 fold
FCGRT (218831_s_at) mRNA expression, fold change vs control [1]: 1.4 fold
FKBP11 (219117_s_at) mRNA expression, fold change vs control [1]: 1.4 fold
FKBP11 (219118_at) mRNA expression, fold change vs control [1]: 1.5 fold
GP6 (220336_s_at) mRNA expression, fold change vs control [1]: 1.4 fold
HCLS1 (202957_at) mRNA expression, fold change vs control [1]: 1.3 fold
HEM1 (209734_at) mRNA expression, fold change vs control [1]: 1.5 fold
HLA-A (210514_x_at) mRNA expression, fold change vs control [1]: 1.3 fold
HLA-A (213932_x_at) mRNA expression, fold change vs control [1]: 1.5 fold
HLA-C (211799_x_at) mRNA expression, fold change vs control [1]: 1.4 fold
HLA-E (200904_at) mRNA expression, fold change vs control [1]: 1.4 fold
HLA-F (221978_at) mRNA expression, fold change vs control [1]: 1.3 fold
ICAM1 (202637_s_at) mRNA expression, fold change vs control [1]: 1.3 fold
IL13RA1 (210904_s_at) mRNA expression, fold change vs control [1]: 1.2 fold
PIK3CD (203879_at) mRNA expression, fold change vs control [1]: 1.2 fold
PRKCBP1 (209048_s_at) mRNA expression, fold change vs control [1]: 1.3 fold
PRKCBP1 (209049_s_at) mRNA expression, fold change vs control [1]: 1.5 fold
PTPN7 (204852_s_at) mRNA expression, fold change vs control [1]: 1.4 fold
SIGIRR (52940_at) mRNA expression, fold change vs control [1]: 1.2 fold
STAT1 (200887_s_at) mRNA expression, fold change vs control [1]: 1.5 fold
STAT1 (AFFX-HUMISGF3A/M97935_3_at) mRNA expression, fold change vs control [1]: 1.4 fold
STAT3 (208992_s_at) mRNA expression, fold change vs control [1]: 1.5 fold
TCIRG1 (204158_s_at) mRNA expression, fold change vs control [1]: 1.2 fold
THY1 (213869_x_at) mRNA expression, fold change vs control [1]: 1.3 fold
TMPO (209753_s_at) mRNA expression, fold change vs control [1]: 1.5 fold
TMSB10 (217733_s_at) mRNA expression, fold change vs control [1]: 1.4 fold
TNFRSF21 (218856_at) mRNA expression, fold change vs control [1]: 1.5 fold
TRB@ (210915_x_at) mRNA expression, fold change vs control [1]: 1.3 fold
TRB@ (213193_x_at) mRNA expression, fold change vs control [1]: 1.5 fold
209813_x_at fold change vs control (iliac vein, animal A60055): 2.4 fold
AIF1 (209901_x_at) fold change vs control (iliac vein, animal A60055): 3.0 fold
AIF1 (213095_x_at) fold change vs control (iliac vein, animal A60055): 3.2 fold
B2M (201891_s_at) fold change vs control (iliac vein, animal A60055): 3.0 fold
BCL3 (204908_s_at) fold change vs control (iliac vein, animal A60055): 1.7 fold
BTN3A1 (207485_x_at) fold change vs control (iliac vein, animal A60055): 4.0 fold
BTN3A3 (38241_at) fold change vs control (iliac vein, animal A60055): 2.3 fold
BTN3A3 (204820_s_at) fold change vs control (iliac vein, animal A60055): 4.1 fold
BTN3A3 (204821_at) fold change vs control (iliac vein, animal A60055): 3.3 fold
C1QA (218232_at) fold change vs control (iliac vein, animal A60055): 1.7 fold
C1QB (202953_at) fold change vs control (iliac vein, animal A60055): 1.8 fold
C1R (212067_s_at) fold change vs control (iliac vein, animal A60055): 2.0 fold
C1S (208747_s_at) fold change vs control (iliac vein, animal A60055): 3.6 fold
C2 (203052_at) fold change vs control (iliac vein, animal A60055): 3.3 fold
C4A (208451_s_at) fold change vs control (iliac vein, animal A60055): 3.8 fold
CASP1 (209970_x_at) fold change vs control (iliac vein, animal A60055): 2.3 fold
CASP1 (211367_s_at) fold change vs control (iliac vein, animal A60055): 2.7 fold
CCL2 (216598_s_at) fold change vs control (iliac vein, animal A60055): 150.9 fold
CCL3 (205114_s_at) fold change vs control (iliac vein, animal A60055): 3.8 fold
CCL5 (1405_i_at) fold change vs control (iliac vein, animal A60055): 2.8 fold
CCL8 (214038_at) fold change vs control (iliac vein, animal A60055): 8.8 fold
CCL18 (209924_at) fold change vs control (iliac vein, animal A60055): 2.0 fold
CCL19 (210072_at) fold change vs control (iliac vein, animal A60055): 3.0 fold
CCNB2 (202705_at) fold change vs control (iliac vein, animal A60055): 2.9 fold
CD3D (213539_at) fold change vs control (iliac vein, animal A60055): 1.9 fold
CD8A (205758_at) fold change vs control (iliac vein, animal A60055): 2.3 fold
CD14 (201743_at) fold change vs control (iliac vein, animal A60055): 2.0 fold
CD74 (209619_at) fold change vs control (iliac vein, animal A60055): 2.8 fold
CLU (208791_at) fold change vs control (iliac vein, animal A60055): 2.2 fold
CMAH (210571_s_at) fold change vs control (iliac vein, animal A60055): 2.0 fold
CTSC (201487_at) fold change vs control (iliac vein, animal A60055): 2.1 fold
CTSK (202450_s_at) fold change vs control (iliac vein, animal A60055): 1.5 fold
CTSS (202902_s_at) fold change vs control (iliac vein, animal A60055): 1.6 fold
CX3CR1 (205898_at) fold change vs control (iliac vein, animal A60055): 3.6 fold
CXCL9 (203915_at) fold change vs control (iliac vein, animal A60055): 9.3 fold
CXCL10 (204533_at) fold change vs control (iliac vein, animal A60055): 19.8 fold
CXCL11 (210163_at) fold change vs control (iliac vein, animal A60055): 9.7 fold
CXCL11 (211122_s_at) fold change vs control (iliac vein, animal A60055): 6.6 fold
CXCL12 (209687_at) fold change vs control (iliac vein, animal A60055): 1.6 fold
CYBA (203028_s_at) fold change vs control (iliac vein, animal A60055): 1.8 fold
CYBB (203923_s_at) fold change vs control (iliac vein, animal A60055): 1.6 fold
CYP1B1 (202436_s_at) fold change vs control (iliac vein, animal A60055): 2.6 fold
CYP3A5 (214234_s_at) fold change vs control (iliac vein, animal A60055): 3.9 fold
CYP11B1 (214630_at) fold change vs control (iliac vein, animal A60055): 2.5 fold
DUSP6 (208893_s_at) fold change vs control (iliac vein, animal A60055): 3.0 fold
ECGF1 (204858_s_at) fold change vs control (iliac vein, animal A60055): 3.3 fold
ECM1 (209365_s_at) fold change vs control (iliac vein, animal A60055): 2.0 fold
F2RL1 (206429_at) fold change vs control (iliac vein, animal A60055): 2.0 fold
F13A1 (203305_at) fold change vs control (iliac vein, animal A60055): 1.8 fold
FCGR1A (214511_x_at) fold change vs control (iliac vein, animal A60055): 2.0 fold
FCGR3A (204006_s_at) fold change vs control (iliac vein, animal A60055): 2.5 fold
G1P2 (205483_s_at) fold change vs control (iliac vein, animal A60055): 4.5 fold
GZMB (210164_at) fold change vs control (iliac vein, animal A60055): 3.2 fold
HCA127 (220040_x_at) fold change vs control (iliac vein, animal A60055): 2.0 fold
HCK (208018_s_at) fold change vs control (iliac vein, animal A60055): 1.8 fold
HFE (210864_x_at) fold change vs control (iliac vein, animal A60055): 1.8 fold

— patent publication US9738932B2, “Biomarkers for cardiovascular side-effects induced by cox-2 inhibitory compounds” (FIRALIS SAS, priority 2005, dated 2017)
